According to the supplement of paper PMC8967900:

Legend:
Test in all cases: selective drug sensitivity score (sDSS, relative to normal bone marrow) (sDSS (score)); higher = more potent and effective on the cell line relative to normal bone marrow cells
Settings in all cases: 72 h
[1] = system: CCRF-HSB2
[2] = system: PEER
[3] = system: RCH-ACV
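Further: ALL cell lines in 384-well plates, five doses spanning 10,000-fold, each plate scaled between vehicle and 100 µmol/L benzalkonium chloride controls, sDSS an adapted area-under-curve metric.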

| Compound | selective drug sensitivity score [1] | selective drug sensitivity score [2] | selective drug sensitivity score [3] |
| --- | --- | --- | --- |
| OC[C@H]1O[C@@H](n2cnc3c2N=CNC[C@H]3O)C[C@@H]1O [Pentostatin] (top concentration 10000 nM) | -0.44 | -0.44 | -0.44 |
| COc1cc(OC2CCN(C)CC2)ccc1Nc1ncc2c(n1)n(C1CCCC1)c(=O)n2C [AZ3146] (top concentration 10000 nM) | 1.84 | 2.54 | 1.24 |
| COc1cc2nccc(Oc3ccc(NC(=O)C4(C(=O)Nc5ccc(F)cc5)CC4)cc3)c2cc1OC [Cabozantinib] (top concentration 1000 nM) | 1.98 | 2.08 | -3.62 |
| COc1ncc(-c2ccc3nccc(-c4ccnnc4)c3c2)cc1NS(=O)(=O)c1ccc(F)cc1F [Omipalisib] (top concentration 1000 nM) | 8.4 | -3 | 30 |
| Cn1cc(C2=C(c3cn(C4CCN(Cc5ccccn5)CC4)c4ccccc34)C(=O)NC2=O)c2ccccc21 [Enzastaurin] (top concentration 10000 nM) | 5.06 | 6.66 | 2.36 |
| COc1cc2nccc(Oc3ccc(NC(=O)Nc4cc(C)on4)c(Cl)c3)c2cc1OC [Tivozanib] (top concentration 10000 nM) | 17.9 | 12.2 | 10.9 |
| CC[C@]1(O)C[C@H]2CN(CCc3c([nH]c4ccccc34)[C@@](C(=O)OC)(c3cc4c(cc3OC)N(C)[C@H]3[C@@](O)(C(=O)OC)[C@H](OC(C)=O)[C@]5(CC)C=CCN6CC[C@]43[C@@H]65)C2)C1 [Vinblastine] (top concentration 1000 nM) | -3.4 | -0.9 | 14.4 |
| CN1CCN(CCOc2cc(OC3CCOCC3)c3c(Nc4c(Cl)ccc5c4OCO5)ncnc3c2)CC1 [Saracatinib] (top concentration 10000 nM) | 28.9 | 7.38 | 7.28 |
| CC1=C(/C=C/C(C)=C/C=C/C(C)=C/C(=O)O)C(C)(C)CCC1 [Tretinoin] (top concentration 10000 nM) | -2.4 | -2.4 | -2.4 |
| CN1CCN(c2ccc(C(=O)Nc3n[nH]c4ccc(Cc5cc(F)cc(F)c5)cc34)c(NC3CCOCC3)c2)CC1 [Entrectinib] (top concentration 1000 nM) | 0.9 | 0.9 | -1.2 |
| CNS(=O)(=O)Nc1nccc(Cc2c(C)c3ccc(Oc4ncccn4)cc3oc2=O)c1F (top concentration 1000 nM) | -1.18 | 0.22 | 0.42 |
| Cc1sc2c(c1C)C(c1ccc(Cl)cc1)=N[C@@H](CC(=O)Nc1ccc(OCCOCCOCCOCCNc3cccc4c3C(=O)N(C3CCC(=O)NC3=O)C4=O)cc1)c1nnc(C)n1-2 (stereo partly drawn) [ARV-825] (top concentration 300 nM) | 1.14 | -0.46 | 4.44 |
| CC/C(=C(\c1ccc(O)cc1)c1ccc(OCCN(C)C)cc1)c1ccccc1 [4-hydroxytamoxifen] (top concentration 10000 nM) | 1.82 | 2.32 | 0.72 |
| CC[C@]1(O)C[C@H]2CN(CCc3c([nH]c4ccccc34)[C@@](C(=O)OC)(c3cc4c(cc3OC)N(C=O)[C@H]3[C@@](O)(C(=O)OC)[C@H](OC(C)=O)[C@]5(CC)C=CCN6CC[C@]43[C@@H]65)C2)C1 [Vincristine] (top concentration 1000 nM) | 1.62 | 6.82 | 17.2 |
| CNC(=O)c1ccc(N2C(=S)N(c3ccc(C#N)c(C(F)(F)F)c3)C(=O)C2(C)C)cc1F [Enzalutamide] (top concentration 10000 nM) | -0.52 | 0.48 | -0.72 |
| CCc1cncnc1N1CCN(Cc2nc3cc(C(F)(F)F)ccc3[nH]2)CC1 (top concentration 10000 nM) | 4.16 | 4.56 | 6.46 |
| CC[C@@](C)(Nc1ccnc(-c2c[nH]c3ncccc23)n1)C(=O)NCC(F)(F)F [Decernotinib] (top concentration 10000 nM) | 1.16 | -3.84 | -3.14 |
| COC(=O)c1ccc2c(c1)[nH]c1ncnc(NCCCN3CCCCC3)c12 [UM729] (top concentration 10000 nM) | 2.84 | 1.84 | 3.24 |
| CCCCCOC(=O)Nc1nc(=O)n([C@@H]2O[C@H](C)[C@@H](O)[C@H]2O)cc1F [Capecitabine] (top concentration 10000 nM) | -0.06 | -0.06 | -0.06 |
| CC(C)N(C[C@H]1O[C@@H](n2cnc3c(N)ncnc32)[C@H](O)[C@@H]1O)[C@H]1C[C@@H](CCc2nc3cc(C(C)(C)C)ccc3[nH]2)C1 [Pinometostat] (top concentration 1000 nM) | 0 | 0 | 0 |
| CC[C@@H]1C(=O)N(C)c2cnc(Nc3ccc(C(=O)NC4CCN(C)CC4)cc3OC)nc2N1C1CCCC1 [BI-2536] (top concentration 1000 nM) | 20.1 | 20.8 | 15.5 |

| Compound | selective drug sensitivity score [1] | selective drug sensitivity score [2] | selective drug sensitivity score [3] |
| --- | --- | --- | --- |
| CN1CCN(c2cc(C(=O)Nc3ccc4c(c3)-c3c(c(C(N)=O)nn3-c3ccc(F)cc3)CC4)c(Cl)cn2)CC1 [PHA-408] (top concentration 10000 nM) | 1.88 | 3.18 | 5.28 |
| C[C@@H]1CN(Cc2ccc(F)cc2)[C@@H](C)CN1C(=O)c1cc2c(C(=O)C(=O)N(C)C)cn(C)c2cc1Cl [Talmapimod] (top concentration 10000 nM) | 0 | 0 | 4.9 |
| CC[C@H](NC(=O)[C@H](C)NC)C(=O)N1C[C@@H](O)C[C@H]1Cc1c(-c2[nH]c3cc(F)ccc3c2C[C@@H]2C[C@H](O)CN2C(=O)[C@H](CC)NC(=O)[C@H](C)NC)[nH]c2cc(F)ccc12 [Birinapant] (top concentration 1000 nM) | 5.7 | -4.4 | 3.1 |
| N#Cc1ccc2[nH]c(O)c(-c3ccc(CN4CCOCC4)cn3)c2c1 [AZD-1080] (top concentration 10000 nM) | 1.08 | -0.02 | 3.98 |
| CO[C@@H](C(=O)N1Cc2[nH]nc(NC(=O)c3ccc(N4CCN(C)CC4)cc3)c2C1)c1ccccc1 [Danusertib] (top concentration 10000 nM) | 19.8 | 21.6 | 17.9 |
| O=c1sn(-c2cccc3ccccc23)c(=O)n1Cc1ccccc1 [Tideglusib] (top concentration 3000 nM) | -0.3 | -0.3 | -0.3 |
| O=c1[nH]c(=O)n([C@H]2C[C@H](O)[C@@H](CO)O2)cc1F [Floxuridine] (top concentration 10000 nM) | 4.42 | 14.2 | 39.1 |
| C[C@@H](C(=O)O)c1ccc(-c2ccccc2)c(F)c1 [Tarenflurbil] (top concentration 10000 nM) | -0.16 | -0.16 | -0.16 |
| O=C(O)c1ccc(O)c2ncccc12 [IOX-1] (top concentration 100000 nM) | 5.34 | 4.34 | 3.74 |
| c1cc(CN2CCCNCCNCCCNCC2)ccc1CN1CCCNCCNCCCNCC1 [Plerixafor] (top concentration 10000 nM) | 0 | 0 | 0 |
| O=C(c1ccc(OCCN2CCCCC2)cc1)c1c(-c2ccc(O)cc2)sc2cc(O)ccc12 [Raloxifene] (top concentration 10000 nM) | 2.42 | 0.82 | 0.02 |
| CC(C)(C)NC(=O)[C@H]1CC[C@H]2[C@@H]3CC[C@H]4NC(=O)C=C[C@]4(C)[C@H]3CC[C@]12C [Finasteride] (top concentration 10000 nM) | -0.52 | -0.52 | -0.52 |
| CC(C)(O)CNc1nc(Nc2ccnc(C(F)(F)F)c2)nc(-c2cccc(C(F)(F)F)n2)n1 [Enasidenib] (top concentration 10000 nM) | -0.1 | 0.6 | 2.2 |
| CN(C)CC#Cc1ccc(OCCCc2sc(N3CCc4cccc(C(=O)Nc5nc6ccccc6s5)c4C3)nc2C(=O)O)c(F)c1 (top concentration 10000 nM) | 17.1 | 31.8 | -1.54 |
| CC(=O)[C@]1(O)Cc2c(O)c3c(c(O)c2[C@@H](O[C@H]2C[C@H](N)[C@H](O)[C@H](C)O2)C1)C(=O)c1ccccc1C3=O [Idarubicin] (top concentration 1000 nM) | 12.3 | -4.86 | 12.7 |
| O=C1Cc2cc(C(=O)NC3C[C@H]4CC[C@@H](C3)N4S(=O)(=O)CC3CCN(CCCC(F)(F)F)CC3)c(Cl)cc2N1 (stereo partly drawn) (top concentration 10000 nM) | 0 | 0 | 0 |
| CCCC(CCC)C(=O)O [Valproic_acid] (top concentration 1000000 nM) | 0 | 0 | 0 |
| Cc1cnc(-c2ccccc2C(C)C)nc1NCc1ccc(-n2ccnn2)cc1 [ML323] (top concentration 10000 nM) | 1.84 | 4.24 | 3.34 |
| NCCNc1ccc(NCCN)c2c1C(=O)c1ccncc1C2=O [Pixantrone] (top concentration 10000 nM) | -2.16 | -2.76 | -2.76 |
| C=CC(=O)Nc1cccc(Nc2nc(Nc3ccc(OCCOC)cc3)ncc2F)c1 [Spebrutinib] (top concentration 1000 nM) | 0.04 | 0.74 | 4.14 |
